Experimental data as given in ChEMBL document CHEMBL1150991, “Comparative molecular field analysis of benzopyran-4-carbothioamide potassium channel openers” (Bioorg Med Chem Lett, 1994).

Organism: Rattus norvegicus
Assay: Molar concentration required to relax rat aorta precontracted with 30 mM KCL by 50% of intrinsic activity
Format: functional

| EC50 | Structure (SMILES) |
| --- | --- |
| 95.5 nM | CNC(=S)C1=CC(C)(C)Oc2ccc(C(=O)OC)cc21 |

Organism: Rattus norvegicus
Assay: Molar concentration required to relax rat aorta precontracted with 30 mM KCL by 50% of intrinsic activity (calculated)
Format: functional

| Structure (SMILES) | EC50 |
| --- | --- |
| C/N=C(/S)C1=CC(C)(C)Oc2ccc([N+](=O)[O-])cc21 | 1.29 nM |
| C/N=C(/S)C1=CC(C)(C)Oc2ccc(S(C)(=O)=O)cc21 | 490 nM |
| CNC(=S)C1=CC(C)(C)Oc2ccc(C(=O)OC)cc21 | 85.1 nM |
| C/N=C(/S)C1=CC(C)(C)Oc2ccccc21 | 4470 nM |
| C/N=C(/S)C1=CC(C)(C)Oc2ccc(C#N)cc21 | 21.4 nM |
| C/N=C(/S)C1=CC(C)(C)Oc2ccc(S(=O)(=O)c3ccccc3)cc21 | 19.5 nM |
| CNC(=S)C1=CC(C)(C)Oc2ccc(OC)cc21 | 457 nM |

The remaining lines, values ahead:

| EC50 | Structure (SMILES) |
| --- | --- |
| 28.8 nM | C/N=C(/S)C1=CC(C)(C)Oc2ccc(Cl)cc21 |
| 11.7 nM | C/N=C(/S)C1=CC(C)(C)Oc2ccc(C(F)(F)C(F)(F)F)cc21 |
| 282 nM | CCc1ccc2c(c1)C(/C(S)=N\C)=CC(C)(C)O2 |
| 3.98 nM | C/N=C(/S)C1=CC(C)(C)Oc2ccc(OC(F)(F)F)cc21 |
| 15.1 nM | C/N=C(/S)C1=CC(C)(C)Oc2ccc(Br)cc21 |
| 2.19 nM | C/N=C(/S)C1=CC(C)(C)Oc2ccc(C(F)(F)F)cc21 |
